According to the supplement of paper PMC11061612:

What was measured:
Assay in all cases: Bliss excess, mean over the matrix (fraction); higher = more synergy
[1] = test system: SK-LU-1 (Lung Adenocarcinoma)
Procedure, shortened: (§1)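 Cell lines in DMEM/F12 or RPMI with 10% FBS were plated in 1536-well plates, held 24 hours at 37°C, 5% CO2, then given two-drug dose matrices for 72 hours (DMSO typically 0.2%). Viability was read by CellTiter-Glo 2.0 luminescence and scaled as inhibition from 0 (vehicle wells) to 1 (blank wells). Combination Emax is the second-highest inhibition in the matrix; Bliss excess is observed combination effect minus expected EA + EB − EA·EB, EA and EB being single-agent effects.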

[2] = test system: SW872 (Other Solid Carcinomas)
Procedure, shortened: as §1

[3] = test system: MOLT-4 (T-Lymphoblastic Leukemia)
Procedure, shortened: as §1

[4] = test system: MOG-G-UVW (Low Grade Glioma)
Procedure, shortened: as §1

[5] = test system: NCI-H650 (Lung Adenocarcinoma)
Procedure, shortened: as §1

[6] = test system: ME-180 (Cervical Carcinoma)
Procedure, shortened: as §1

[7] = test system: NCI-H1092 (Small Cell Lung Carcinoma)
Procedure, shortened: as §1

[8] = test system: SW982 (Other Solid Carcinomas)
Procedure, shortened: as §1

[9] = test system: G-401 (Other Solid Carcinomas)
Procedure, shortened: as §1

[10] = test system: HCC1937 (Breast Carcinoma)
Procedure, shortened: as §1

[11] = test system: ALL-SIL (T-Lymphoblastic Leukemia)
Procedure, shortened: as §1

[12] = test system: NCI-H2122 (Lung Adenocarcinoma)
Procedure, shortened: as §1

[13] = test system: NCI-H1838 (Lung Adenocarcinoma)
Procedure, shortened: as §1

[14] = test system: LC-1-sq (Squamous Cell Lung Carcinoma)
Procedure, shortened: as §1

[15] = test system: ML-2 (Acute Myeloid Leukemia)
Procedure, shortened: as §1

[16] = test system: COLO-679 (Melanoma)
Procedure, shortened: as §1

[17] = test system: OACM5-1 (Esophageal Adenocarcinoma)
Procedure, shortened: as §1

[18] = test system: Ca-Ski (Cervical Carcinoma)
Procedure, shortened: as §1

[19] = test system: DU-145 (Prostate Carcinoma)
Procedure, shortened: as §1

[20] = test system: MV-4-11 (Acute Myeloid Leukemia)
Procedure, shortened: as §1

For `CN(C)CCCOc1ccc(-c2ccc3ncc4c(c3c2)n(C2CCOCC2)c(=O)n4C)cn1` [AZD0156] + O=C(c1cc(Cc2n[nH]c(=O)c3ccccc23)ccc1F)N1CCN(C(=O)C2CC2)CC1 [Olaparib] (first compound max 3 µM, partner max 3 µM), the Bliss excess [1] was -0.017, the Bliss excess [2] was -0.0318 and the Bliss excess [3] was 0.123. The Bliss excess [4] was 0.204, the Bliss excess [5] was -0.014 and the Bliss excess [6] was 0.0444. For the same compound, the Bliss excess [7] was 0.0028, the Bliss excess [8] was 0.0903 and the Bliss excess [9] was 0.0269. For the same compound, the Bliss excess [10] was 0.0316, the Bliss excess [11] was 0.0281 and the Bliss excess [12] was 0.109. It also gave a Bliss excess [13] of -0.0093, a Bliss excess [14] of -0.0374 and a Bliss excess [15] of 0.117. For the same compound, the Bliss excess [16] was -0.0013, the Bliss excess [17] was -0.0162 and the Bliss excess [18] was 0.063. It also gave a Bliss excess [19] of -0.0462.
`C[C@@H]1COCCN1c1cc(C2([S@](C)(=N)=O)CC2)nc(-c2ccnc3[nH]ccc23)n1` [AZD6738] + C1CC(C1)(C(=O)[O-])C(=O)[O-].N.N.[Pt+2] [Carboplatin] (first compound max 10 µM, 7x7, partner max 10 µM) showed a Bliss excess [20] of -0.0339, a Bliss excess [1] of -0.0088 and a Bliss excess [2] of 0.0087. It also gave a Bliss excess [3] of -0.013, a Bliss excess [4] of -0.0044 and a Bliss excess [6] of -0.013. It also gave a Bliss excess [8] of -0.0453, a Bliss excess [15] of -0.0111 and a Bliss excess [16] of -0.0944. The Bliss excess [18] was 0.0041 and the Bliss excess [19] was -0.043.
In the case of `C[C@@H](Oc1cc(-c2cnn(C3CCNCC3)c2)cnc1N)c1c(Cl)ccc(F)c1Cl` [Crizotinib] + CC1=C(C(=CC=C1)Cl)NC(=O)C2=CN=C(S2)NC3=CC(=NC(=N3)C)N4CCN(CC4)CCO [Dasatinib] (first compound max 10 µM, 7x7, partner max 2 µM), the Bliss excess [20] is reported as 0.0161, the Bliss excess [1] is reported as 0.02 and the Bliss excess [2] is reported as 0.041. The Bliss excess [3] was -0.0209, the Bliss excess [4] was 0.182 and the Bliss excess [6] was 0.038. The Bliss excess [8] was 0.0386, the Bliss excess [15] was -0.0165 and the Bliss excess [16] was -0.0604. It also gave a Bliss excess [18] of 0.0454 and a Bliss excess [19] of 0.0158.
Work on `CN(CCO)CC[C@H](CSc1ccccc1)Nc1ccc(S(=O)(=O)NC(=O)c2ccc(N3CCC([C@@H](O)c4ccccc4-c4ccc(Cl)cc4)CC3)cc2)cc1S(=O)(=O)C(F)(F)F` [AZD4320] + CS(=O)(=O)CCNCc1ccc(-c2ccc3ncnc(Nc4ccc(OCc5cccc(F)c5)c(Cl)c4)c3c2)o1 [Lapatinib] (first compound max 1 µM, 7x7, partner max 10 µM) yielded a Bliss excess [20] of 0.018, a Bliss excess [1] of -0.0415 and a Bliss excess [2] of 0.0097. For the same compound, the Bliss excess [3] was 0.0886, the Bliss excess [4] was 0.0193 and the Bliss excess [6] was 0.0726. It also gave a Bliss excess [8] of 0.0799, a Bliss excess [15] of 0.0678 and a Bliss excess [16] of -0.106. It also gave a Bliss excess [18] of 0.127 and a Bliss excess [19] of -0.028.
For `CS(=O)(=O)CCNCc1ccc(-c2ccc3ncnc(Nc4ccc(OCc5cccc(F)c5)c(Cl)c4)c3c2)o1` [Lapatinib] + NC1(c2ccc(-c3nc4ccn5c(=O)[nH]nc5c4cc3-c3ccccc3)cc2)CCC1 [MK-2206] (first compound max 10 µM, 7x7, partner max 10 µM), the Bliss excess [20] was 0.0371, the Bliss excess [1] was -0.0239 and the Bliss excess [2] was -0.0066. The Bliss excess [3] was 0.0866, the Bliss excess [4] was 0.0675 and the Bliss excess [5] was -0.0464. The Bliss excess [6] was 0.0315, the Bliss excess [7] was 0.0182 and the Bliss excess [8] was -0.0099. The Bliss excess [10] was -0.0343, the Bliss excess [13] was -0.0422 and the Bliss excess [15] was 0.0017. The Bliss excess [16] was -0.031, the Bliss excess [18] was 0.0103 and the Bliss excess [19] was -0.0235.
`Cc1c2c(nn1C)CSCc1cc(n(C)n1)CSc1cc(c3ccccc3c1)OCCCc1c(C(=O)O)n(C)c3c-2c(Cl)ccc13` [AZD5991] + CC(=O)O[C@H]1C(=O)[C@@]2(C)[C@H]([C@H](OC(=O)c3ccccc3)[C@]3(O)C[C@H](OC(=O)[C@H](O)[C@@H](NC(=O)c4ccccc4)c4ccccc4)C(C)=C1C3(C)C)[C@]1(OC(C)=O)CO[C@@H]1C[C@@H]2O [Paclitaxel] (first compound max 1 µM, 7x7, partner max 3 µM) showed a Bliss excess [20] of 0.0129, a Bliss excess [1] of -0.0288 and a Bliss excess [2] of 0.018. For the same compound, the Bliss excess [3] was 0.0219, the Bliss excess [4] was 0.0217 and the Bliss excess [6] was 0.0258. For the same compound, the Bliss excess [8] was -0.0039, the Bliss excess [15] was 0.0157 and the Bliss excess [16] was 0.0314. For the same compound, the Bliss excess [18] was 0.0422 and the Bliss excess [19] was 0.0077.
`C=CCn1c(=O)c2cnc(Nc3ccc(N4CCN(C)CC4)cc3)nc2n1-c1cccc(C(C)(C)O)n1` [AZD1775] + CCc1c2c(nc3ccc(O)cc13)-c1cc3c(c(=O)n1C2)COC(=O)[C@]3(O)CC [SN-38] (first compound max 1 µM, partner max 0.3 µM) showed a Bliss excess [20] of -0.0281, a Bliss excess [1] of -0.133 and a Bliss excess [2] of -0.0641. The Bliss excess [3] was 0.0188, the Bliss excess [4] was 0.0228 and the Bliss excess [6] was -0.0039. For the same compound, the Bliss excess [8] was -0.0158, the Bliss excess [15] was -0.0033 and the Bliss excess [16] was -0.171. It also gave a Bliss excess [18] of 0.0285 and a Bliss excess [19] of -0.0641.
With `Cc1c2c(nn1C)CSCc1cc(n(C)n1)CSc1cc(c3ccccc3c1)OCCCc1c(C(=O)O)n(C)c3c-2c(Cl)ccc13` [AZD5991] + Cc1cc2ncnn2cc1Nc1ncc2c(n1)n(C1CCOCC1)c(=O)n2C [AZD7648] (first compound max 1 µM, 7x7, partner max 10 µM) the Bliss excess [20] was -0.0151, the Bliss excess [1] was -0.062 and the Bliss excess [2] was -0.0235. It also gave a Bliss excess [3] of -0.0072, a Bliss excess [4] of 0.0048 and a Bliss excess [5] of -0.0101. It also gave a Bliss excess [6] of -0.009, a Bliss excess [7] of -0.0458 and a Bliss excess [8] of -0.0232. It also gave a Bliss excess [9] of -0.167, a Bliss excess [10] of -0.015 and a Bliss excess [11] of -0.0253. For the same compound, the Bliss excess [12] was -0.0559, the Bliss excess [13] was -0.0929 and the Bliss excess [14] was 0.0048. For the same compound, the Bliss excess [15] was -0.0314, the Bliss excess [16] was 0.0019 and the Bliss excess [18] was -0.0079. It also gave a Bliss excess [19] of -0.0307.
`C[C@@H](Oc1cc(-c2cnn(C3CCNCC3)c2)cnc1N)c1c(Cl)ccc(F)c1Cl` [Crizotinib] + Cn1cnc2c(F)c(Nc3ccc(Br)cc3Cl)c(C(=O)NOCCO)cc21 [Selumetinib] (first compound max 10 µM, 7x7, partner max 10 µM) gave a Bliss excess [20] of -0.0232, a Bliss excess [1] of -0.0531 and a Bliss excess [2] of -0.0107. It also gave a Bliss excess [3] of -0.0843, a Bliss excess [4] of 0.104 and a Bliss excess [6] of 0.0308. It also gave a Bliss excess [8] of 0.0165, a Bliss excess [15] of -0.0083 and a Bliss excess [16] of -0.0369. It also gave a Bliss excess [18] of 0.0464 and a Bliss excess [19] of -0.0321.
